Data published in patent US4751295A, “Cephalosporin derivatives” (Bristol-Myers Company, priority 1986, dated 1988).
≈ marks a conversion by molar mass, not a printed value. Structures can show the parent of a compound that is named as a salt. Where two headings read alike, the source gives them in different places.

What was measured:
[1] = blood levels upon intramuscular administration to mice; type: in vivo; conditions: mouse, im, 20 mg/kg
Protocol: Table 2, below, gives the Protective Dose50 (PD50) in mice for a number of the compounds of Formula I against selected microorganisms. Table 3 gives blood levels of various compounds of Formula I upon intramuscular administration of the test compounds to mice at a dosage of 20 mg/kg.

[2] = test system: M. morganii (1 strain), Ent. cloacae (2 strains) and Ser. marcescens (2 strains); experiment: MIC, two-fold serial agar dilution, group (G-)-II; type: cell-based; conditions: Mueller-Hinton agar, 5 strains; for MIC: read-out: Geometric Mean of MIC, (G-)-II
Protocol: (§1) In the primary evaluation of the compounds of this invention, the Minimum Inhibitory Concentrations (MIC's) of the compounds were determined by the two-fold serial agar dilution method in Mueller-Hinton agar against 32 strains of test organisms in six groups.
(G-)II: M. morganii (1 strain), Ent. cloacae (2 strains) and Ser.

[3] = test system: Cephalothinresistant E. coli (3 strains) and Kl. pneumoniae (2 strains); experiment: MIC, two-fold serial agar dilution, group (G-)-Ib; type: cell-based; conditions: 5 strains; for MIC: Escherichia coli, read-out: Geometric Mean of MIC, (G-)-Ib, Mueller-Hinton agar; for Geometric Mean of MIC, (G-)-Ib: Mueller-Hinton agar
Protocol: as §1
(G-)Ib: Cephalothinresistant E. coli (3 strains) and Kl. pneumoniae (2

[4] = test system: Cephalothinsensitive E. coli (2 strains), Kl. pneumoniae (1 strain) and Pr. mirabilis (2 strains); experiment: MIC, two-fold serial agar dilution, group (G-)-Ia; type: cell-based; conditions: Mueller-Hinton agar, 5 strains; for MIC: read-out: Geometric Mean of MIC, (G-)-Ia
Protocol: as §1
(G+)Ia: Cephalothinsensitive E. coli (2 strains), Kl. pneumoniae (1
strain) and Pr. mirabilis (2 strains)

[5] = test system: Penicillinsensitive S. aureus (5 strains); experiment: MIC, two-fold serial agar dilution, group (G+)-Ia; type: cell-based; conditions: for MIC: Staphylococcus aureus, read-out: Geometric Mean of MIC, (G+)-Ia
Protocol: as §1
(G+)Ia: Penicillinsensitive S. aureus (5 strains)

[6] = test system: Ps. aeruginosa (7 strains); experiment: MIC, two-fold serial agar dilution, group (G-)-III; type: cell-based; conditions: Mueller-Hinton agar; for MIC: Pseudomonas aeruginosa, read-out: Geometric Mean of MIC, (G-)-III
Protocol: as §1
(G-)III: Ps. aeruginosa (7 strains)

[7] = test system: Penicillinresistant S. aureus (5 strains); experiment: MIC, two-fold serial agar dilution, group (G+)-Ib; type: cell-based; conditions: Mueller-Hinton agar, 5 strains; for MIC: Staphylococcus aureus, read-out: Geometric Mean of MIC, (G+)-Ib
Protocol: as §1
(G+)Ib: Penicillinresistant S. aureus (5 strains)

CON=C(C(=O)NC1C(=O)N2C(C(=O)[O-])=C(C=CC[N+](C)(C)C)CS[C@H]12)c1nsc(N)n1 (stereo partly drawn) [Compound I-1D, 7-[2-(5-Amino-1,2,4-thiadiazol-3-yl)-2-methoxyiminoacetamido]-3-(3-trimethylammonio-1-propen-1-yl)-3-cephem-4-carboxylate]
AUC [1]: 11000 ng·h/mL
Cmax [1]: 20000 ng/mL
half-life [1]: 19 min

CON=C(C(=O)NC1C(=O)N2C(C(=O)[O-])=C(/C=C/C[n+]3cccc(N)c3)CSC12)c1nsc(N)n1 (stereo not drawn) [Compound I-1E, 7-[2-(5-Amino-1,2,4-thiadiazol-3-yl)-2-methoxyiminoacetamido]-3-[3-(3-aminopyridinio)-1-propen-1-yl]-3-cephem-4-carboxylate]
MIC [2]: 0.1 µg/mL (≈ 0.194 µM)
MIC [3]: 0.029 µg/mL (≈ 0.0561 µM)
MIC [4]: 0.0094 µg/mL (≈ 0.0182 µM)
MIC [5]: 0.2 µg/mL (≈ 0.387 µM)
MIC [6]: 1.4 µg/mL (≈ 2.71 µM)
MIC [7]: 0.4 µg/mL (≈ 0.774 µM)

CON=C(C(=O)NC1C(=O)N2C(C(=O)[O-])=C(/C=C/C[n+]3cccc(NC=O)c3)CSC12)c1nsc(N)n1 (stereo not drawn) [Compound I-1F, 7-[2-(5-Amino-1,2,4-thiadiazol-3-yl)-2-methoxyiminoacetamido]-3-[3-(3-formylaminopyridinio)-1-propen-1-yl]-3-cephem-4-carboxylate]
MIC [2]: 0.099 µg/mL (≈ 0.182 µM)
MIC [3]: 0.033 µg/mL (≈ 0.0606 µM)
MIC [4]: 0.0094 µg/mL (≈ 0.0173 µM)
MIC ([5]; Mueller-Hinton agar, 5 strains): 0.15 µg/mL (≈ 0.275 µM)
MIC [6]: 1.2 µg/mL (≈ 2.2 µM)
MIC [7]: 0.4 µg/mL (≈ 0.735 µM)

CON=C(C(=O)NC1C(=O)N2C(C(=O)[O-])=C(/C=C/C[n+]3cccc(CN)c3)CSC12)c1nsc(N)n1 (stereo not drawn) [Compound I-1I, 7-[2-(5-Amino-1,2,4-thiadiazol-3-yl)-2-methoxyiminoacetamido]-3-[3-(3-aminomethylpyridinio)-1-propen-1-yl]-3-cephem-4-carboxylate]
MIC [2]: 0.69 µg/mL (≈ 1.3 µM)
MIC [3]: 0.2 µg/mL (≈ 0.377 µM)
MIC [4]: 0.1 µg/mL (≈ 0.188 µM)
MIC ([5]; Mueller-Hinton agar, 5 strains): 0.8 µg/mL (≈ 1.51 µM)
MIC [6]: 3.1 µg/mL (≈ 5.84 µM)
MIC [7]: 1.6 µg/mL (≈ 3.02 µM)

CON=C(C(=O)NC1C(=O)N2C(C(=O)[O-])=C(/C=C/C[n+]3ccc(CO)cc3)CSC12)c1nsc(N)n1 (stereo not drawn) [Compound I-1L, 7-[2-(5-Amino-1,2,4-thiadiazol-3-yl)-2-methoxyiminoacetamido]-3-[3-(4-hydroxymethylpyridinio)-1-propen-1-yl]-3-cephem-4-carboxylate]
MIC [2]: 0.15 µg/mL (≈ 0.282 µM)
MIC [3]: 0.088 µg/mL (≈ 0.166 µM)
MIC [4]: 0.029 µg/mL (≈ 0.0546 µM)
MIC ([5]; Mueller-Hinton agar, 5 strains): 0.26 µg/mL (≈ 0.489 µM)
MIC [6]: 2.6 µg/mL (≈ 4.89 µM)
MIC [7]: 0.61 µg/mL (≈ 1.15 µM)

CON=C(C(=O)NC1C(=O)N2C(C(=O)[O-])=C(/C=C/C[n+]3cccc(CC(=O)O)c3)CSC12)c1nsc(N)n1 (stereo not drawn) [Compound I-1P, 7-[2-(5-Amino-1,2,4-thiadiazol-3-yl)-2-methoxyiminoacetamido]-3-[3-(3-carboxymethylpyridinio)-1-propenyl]-3-cephem-4-carboxylate]
MIC [2]: 0.34 µg/mL (≈ 0.608 µM)
MIC [3]: 0.087 µg/mL (≈ 0.155 µM)
MIC [4]: 0.013 µg/mL (≈ 0.0232 µM)
MIC ([5]; Mueller-Hinton agar, 5 strains): 0.8 µg/mL (≈ 1.43 µM)
MIC [6]: 14 µg/mL (≈ 25 µM)
MIC [7]: 1.6 µg/mL (≈ 2.86 µM)

CON=C(C(=O)NC1C(=O)N2C(C(=O)[O-])=C(/C=C/C[n+]3ccc(SCC(=O)O)cc3)CSC12)c1nsc(N)n1 (stereo not drawn) [Compound I-1Q, 7-[2-(5-Amino-1,2,4-thiadiazol-3-yl)-2-methoxyiminoacetamido]-3-[3-(4-carboxymethylthiopyridinio)-1-propenyl]-3-cephem-4-carboxylate]
MIC [2]: 0.23 µg/mL (≈ 0.389 µM)
MIC [3]: 0.044 µg/mL (≈ 0.0744 µM)
MIC [4]: 0.0095 µg/mL (≈ 0.0161 µM)
MIC ([5]; Mueller-Hinton agar, 5 strains): 0.7 µg/mL (≈ 1.18 µM)
MIC [6]: 14 µg/mL (≈ 23.7 µM)
MIC [7]: 0.92 µg/mL (≈ 1.55 µM)

CCON=C(C(=O)NC1C(=O)N2C(C(=O)[O-])=C(/C=C/C[n+]3ccc(C(N)=O)cc3)CSC12)c1nsc(N)n1 (stereo not drawn) [Compound I-2H, 7-[2-(5-Amino-1,2,4-thiadiazol-3-yl)-2-ethoxyiminoacetamido]-3-[3-(4-carbamoylpyridinio)-1-propen-1-yl]-3-cephem-4-carboxylate]
MIC [2]: 0.15 µg/mL (≈ 0.269 µM)
MIC [3]: 0.057 µg/mL (≈ 0.102 µM)
MIC [4]: 0.014 µg/mL (≈ 0.0251 µM)
MIC [5]: 0.2 µg/mL (≈ 0.358 µM)
MIC [6]: 1.4 µg/mL (≈ 2.51 µM)
MIC [7]: 0.4 µg/mL (≈ 0.716 µM)

CON=C(C(=O)NC1C(=O)N2C(C(=O)[O-])=C(C=CC[N+]3(C)CCCC3)CSC12)c1nsc(N)n1 (stereo not drawn) [I-1A E/Z = 1/1, 7-[2-(5-Amino-1,2,4-thiadiazol-3-yl)-2-methoxyiminoacetamido]-3-[3-(1-methylpyrrolidinio)-1-propen-1-yl]-3-cephem-4-carboxylate]
MIC [2]: 0.23 µg/mL (≈ 0.453 µM)
Geometric Mean of MIC, (G-)-Ib [3]: 0.15 µg/mL
MIC [4]: 0.05 µg/mL (≈ 0.0985 µM)
MIC ([5]; Mueller-Hinton agar, 5 strains): 0.26 µg/mL (≈ 0.512 µM)
MIC [6]: 2.4 µg/mL (≈ 4.73 µM)
MIC [7]: 0.7 µg/mL (≈ 1.38 µM)

CON=C(C(=O)NC1C(=O)N2C(C(=O)[O-])=C(C=CC[N+]3(C)CCCC3)CSC12)c1nsc(N)n1 (stereo not drawn) [I-1A E/Z = 7/1, 7-[2-(5-Amino-1,2,4-thiadiazol-3-yl)-2-methoxyiminoacetamido]-3-[3-(1-methylpyrrolidinio)-1-propenyl]-3-cephem-4-carboxylate sulfate]
Geometric Mean of MIC, (G-)-II ([2]; sulfate): 0.17 µg/mL
Geometric Mean of MIC, (G-)-Ib ([3]; sulfate): 0.05 µg/mL
Geometric Mean of MIC, (G-)-Ia ([4]; sulfate): 0.029 µg/mL
Geometric Mean of MIC, (G+)-Ia ([5]; Mueller-Hinton agar, 5 strains, sulfate): 0.13 µg/mL
Geometric Mean of MIC, (G-)-III ([6]; sulfate): 1.4 µg/mL
Geometric Mean of MIC, (G+)-Ib ([7]; sulfate): 0.35 µg/mL

CON=C(C(=O)NC1C(=O)N2C(C(=O)[O-])=C(/C=C/C[n+]3ccccc3)CSC12)c1nsc(N)n1 (stereo not drawn) [I-1B E, 7-[2-(5-Amino-1,2,4-thiadiazol-3-yl)-2-methoxyiminoacetamido]-3-[3-pyridinio-1-propen-1-yl]-3-cephem-4-carboxylate]
MIC [2]: 0.11 µg/mL (≈ 0.219 µM)
MIC [3]: 0.044 µg/mL (≈ 0.0877 µM)
MIC [4]: 0.016 µg/mL (≈ 0.0319 µM)
MIC [5]: 0.2 µg/mL (≈ 0.399 µM)
MIC [6]: 1.6 µg/mL (≈ 3.19 µM)
MIC [7]: 0.4 µg/mL (≈ 0.798 µM)

CON=C(C(=O)NC1C(=O)N2C(C(=O)[O-])=C(C=CC[N+](C)(C)C)CS[C@H]12)c1nsc(N)n1 (stereo partly drawn) [I-1D E/Z = 1/1, 7-[2-(5-Amino-1,2,4-thiadiazol-3-yl)-2-methoxyiminoacetamido]-3-(3-trimethylammonio-1-propen-1-yl)-3-cephem-4-carboxylate]
MIC [2]: 0.46 µg/mL (≈ 0.955 µM)
Geometric Mean of MIC, (G-)-Ib [3]: 0.26 µg/mL
MIC [4]: 0.1 µg/mL (≈ 0.208 µM)
Geometric Mean of MIC, (G+)-Ia ([5]; Mueller-Hinton agar, 5 strains): 0.61 µg/mL
MIC [6]: 2.4 µg/mL (≈ 4.98 µM)
Geometric Mean of MIC, (G+)-Ib [7]: 1.4 µg/mL

CON=C(C(=O)NC1C(=O)N2C(C(=O)[O-])=C(C=CC[N+](C)(C)C)CS[C@H]12)c1nsc(N)n1 (stereo partly drawn) [I-1D E/Z = 10/1, 7-[2-(5-Amino-1,2,4-thiadiazol-3-yl)-2-methoxyiminoacetamido]-3-[3-trimethylammonio-1-propenyl]-3-cephem-4-carboxylate]
Geometric Mean of MIC, (G-)-II [2]: 0.26 µg/mL
Geometric Mean of MIC, (G-)-Ib [3]: 0.076 µg/mL
Geometric Mean of MIC, (G-)-Ia [4]: 0.05 µg/mL
Geometric Mean of MIC, (G+)-Ia ([5]; Mueller-Hinton agar, 5 strains): 0.30 µg/mL
Geometric Mean of MIC, (G-)-III [6]: 1.3 µg/mL
Geometric Mean of MIC, (G+)-Ib [7]: 0.53 µg/mL

CCO/N=C(\C(=O)NC1C(=O)N2C(C(=O)[O-])=C(/C=C/C[n+]3ccc(C(=O)O)cc3)CSC12)c1nsc(N)n1 (stereo not drawn) [I-2N E, 7-[2-(5-Amino-1,2,4-thiadiazol-3-yl)-2-(Z)-ethoxyiminoacetamido]-3-[3-(4-carboxypyridinio)-1-propenyl]-3-cephem-4-carboxylate]
MIC [2]: 0.35 µg/mL (≈ 0.625 µM)
MIC [3]: 0.11 µg/mL (≈ 0.197 µM)
MIC [4]: 0.016 µg/mL (≈ 0.0286 µM)
MIC ([5]; Mueller-Hinton agar, 5 strains): 1.2 µg/mL (≈ 2.14 µM)
MIC [6]: 4.7 µg/mL (≈ 8.4 µM)
MIC [7]: 2.1 µg/mL (≈ 3.75 µM)

CCO/N=C(\C(=O)NC1C(=O)N2C(C(=O)[O-])=C(/C=C\C[n+]3ccc(C(=O)O)cc3)CSC12)c1nsc(N)n1 (stereo not drawn) [I-2N Z, 7-[2-(5-Amino-1,2,4-thiadiazol-3-yl)-2-(Z)-ethoxyiminoacetamido]-3-[3-(4-carboxypyridinio)-1-propenyl]-3-cephem-4-carboxylate]
MIC [2]: 0.69 µg/mL (≈ 1.23 µM)
MIC [3]: 0.15 µg/mL (≈ 0.268 µM)
MIC [4]: 0.044 µg/mL (≈ 0.0786 µM)
MIC ([5]; Mueller-Hinton agar, 5 strains): 1.4 µg/mL (≈ 2.5 µM)
MIC [6]: 10 µg/mL (≈ 17.9 µM)
MIC [7]: 3.1 µg/mL (≈ 5.54 µM)
